Experimental data taken from patent US20220061324A1, “PESTICIDALLY ACTIVE HETEROCYCLIC DERIVATIVES WITH SULFUR CONTAINING SUBSTITUENTS” (SYNGENTA CROP PROTECTION AG, priority 2018, published 2022).

Tests used:
[1] = tested on: Euschistus heros (Neotropical Brown Stink Bug); assay: Activity against Euschistus heros (neotropical brown stink bug), soybean leaves sprayed; type: in vivo; conditions: 120 h, application rate 200 ppm, N2 nymphs, 5 days after infestation, read-out: effect in at least one of the two categories (mortality or growth inhibition)
Protocol: Example B2: Activity Against Euschistus heros (Neotropical Brown Stink Bug)
Soybean leaves on agar in 24-well microtiter plates were sprayed with aqueous test solutions prepared from 10,000 ppm DMSO stock solutions. After drying the leaves were infested with N2 nymphs. The samples were assessed for mortality and growth inhibition in comparison to untreated samples 5 days after infestation.

[2] = tested on: Diabrotica balteata (Corn Root Worm); assay: Activity against Diabrotica balteata (corn root worm), maize sprouts sprayed; type: in vivo; conditions: 96 h, application rate 200 ppm, L2 larvae, 4 days after infestation, read-out: effect in at least one of the two categories (mortality or growth inhibition)
Protocol: Example B1: Activity Against Diabrotica balteata (Corn Root Worm)
Maize sprouts placed onto an agar layer in 24-well microtiter plates were treated with aqueous test solutions prepared from 10,000 ppm DMSO stock solutions by spraying. After drying, the plates were infested with L2 larvae (6 to 10 per well). The samples were assessed for mortality and growth inhibition in comparison to untreated samples 4 days after infestation.

[3] = tested on: Myzus persicae (Green Peach Aphid); assay: Activity against Myzus persicae (green peach aphid), feeding/contact activity; type: in vivo; conditions: 144 h, application rate 200 ppm, feeding/contact, mixed ages, 6 days after infestation, read-out: mortality
Protocol: Example B4: Activity Against Myzus persicae (Green Peach Aphid) Feeding/Contact Activity
Sunflower leaf discs were placed onto agar in a 24-well microtiter plate and sprayed with aqueous test solutions prepared from 10,000 ppm DMSO stock solutions. After drying, the leaf discs were infested with an aphid population of mixed ages. The samples were assessed for mortality 6 days after infestation.

[4] = tested on: Spodoptera littoralis (Egyptian Cotton Leaf Worm); assay: Activity against Spodoptera littoralis (Egyptian cotton leaf worm), cotton leaf discs; type: in vivo; conditions: foliar, 72 h, application rate 200 ppm, L1 larvae, 3 days after infestation, read-out: control (mortality, anti-feedant effect or growth inhibition)
Protocol: Example B5: Activity Against Spodoptera littoralis (Egyptian Cotton Leaf Worm)
Cotton leaf discs were placed onto agar in 24-well microtiter plates and sprayed with aqueous test solutions prepared from 10,000 ppm DMSO stock solutions. After drying the leaf discs were infested with five L1 larvae. The samples were assessed for mortality, anti-feeding effect, and growth inhibition in comparison to untreated samples 3 days after infestation. Control of Spodoptera littoralis by a test sample is given when at least one of the categories mortality, anti-feedant effect, and growth inhibition is higher than the untreated sample.

[5] = tested on: Myzus persicae (Green Peach Aphid); assay: Activity against Myzus persicae (green peach aphid), systemic activity, pea seedlings; type: in vivo; conditions: 144 h, test rate 24 ppm, roots in test solution, 6 days
Protocol: Example B8: Activity Against Myzus persicae (Green Peach Aphid) Systemic Activity
Roots of pea seedlings infested with an aphid population of mixed ages were placed directly into aqueous test solutions prepared from 10,000 DMSO stock solutions. The samples were assessed for mortality 6 days after placing seedlings into test solutions.

[6] = tested on: Plutella xylostella (Diamond Back Moth); assay: Activity against Plutella xylostella (diamond back moth), artificial diet; type: in vivo; conditions: 192 h, application rate 200 ppm, eggs, 8 days after infestation, read-out: effect in at least one of the two categories (mortality or growth inhibition)
Protocol: Example B3: Activity Against Plutella xylostella (Diamond Back Moth)
24-well microtiter plates with artificial diet were treated with aqueous test solutions prepared from 10,000 ppm DMSO stock solutions by pipetting. After drying, Plutella eggs were pipetted through a plastic stencil onto a gel blotting paper and the plate was closed with it. The samples were assessed for mortality and growth inhibition in comparison to untreated samples 8 days after infestation.

[7] = tested on: Frankliniella occidentalis (Western Flower Thrips); assay: Activity against Frankliniella occidentalis (western flower thrips), sunflower leaf discs; type: in vivo; conditions: foliar, 168 h, application rate 200 ppm, mixed ages, 7 days after infestation
Protocol: Example B7: Activity Against Frankliniella occidentalis (Western Flower Thrips)
Sunflower leaf discs were placed on agar in 24-well microtiter plates and sprayed with aqueous test solutions prepared from 10,000 DMSO stock solutions. After drying the leaf discs were infested with a Frankliniella population of mixed ages. The samples were assessed for mortality 7 days after infestation.

[8] = tested on: Bemisia tabaci (Cotton White Fly); assay: Activity against Bemisia tabaci (cotton white fly), cotton leaf discs; type: in vivo; conditions: foliar, 144 h, application rate 200 ppm, adult white flies, 6 days after incubation
Protocol: Example B6: Activity Against Bemisia tabaci (Cotton White Fly)
Cotton leaf discs were placed on agar in 24-well microtiter plates and sprayed with aqueous test solutions prepared from 10,000 ppm DMSO stock solutions. After drying the leaf discs were infested with adult white flies. The samples were checked for mortality 6 days after incubation.

## CCS(=O)(=O)c1cc(N(C)C(C)=O)cnc1-c1ncc2c(OCC(F)(F)C(F)(F)F)nccn12 [Compound P13, N-[5-ethylsulfonyl-6-[8-(2,2,3,3,3-penta-fluoropropoxy)imidazo [1,5-a]pyrazin-3-yl]-3-pyridyl]-N-methyl-acetamide]
[1]
  percent effect (mortality or growth inhibition) at 200 ppm: ≥ 80%
[2]
  percent effect (mortality or growth inhibition) at 200 ppm: ≥ 80%
[3]
  mortality at 200 ppm: ≥ 80%
[4]
  percent control (mortality, anti-feedant effect or growth inhibition) at 200 ppm: ≥ 80%
[5]
  mortality at 24 ppm: ≥ 80%
[6]
  percent effect (mortality or growth inhibition) at 200 ppm: ≥ 80%

## CCS(=O)(=O)c1cc(OC(C)(C)C#N)cnc1-c1ncc2c(OCC(F)(F)C(F)(F)F)nccn12 [Compound P51, 2-[[5-ethylsulfonyl-6-[8-(2,2,3,3,3-pentafluoropropoxy)imidazo [1,5-a]pyrazin-3-yl]-3-pyridyl]oxy]-2-methyl-propanenitrile]
[1]
  percent effect (mortality or growth inhibition) at 200 ppm: ≥ 80%
[2]
  percent effect (mortality or growth inhibition) at 200 ppm: ≥ 80%
[3]
  mortality at 200 ppm: ≥ 80%
[7]
  mortality at 200 ppm: ≥ 80%
[4]
  percent control (mortality, anti-feedant effect or growth inhibition) at 200 ppm: ≥ 80%
[6]
  percent effect (mortality or growth inhibition) at 200 ppm: ≥ 80%
[8]
  mortality at 200 ppm: ≥ 80%

## CCSc1cc(N=S(C)(C)=O)cnc1-c1ncc2c(OCC(F)(F)C(F)(F)F)nccn12 [Compound P17, [5-ethylsulfanyl-6-[8-(2,2,3,3,3-penta-fluoropropoxy)imidazo [1,5-a]pyrazin-3-yl]-3-pyridyl]imino-dimethyl-oxo-λ^6-sulfane]
[1]
  percent effect (mortality or growth inhibition) at 200 ppm: ≥ 80%
[2]
  percent effect (mortality or growth inhibition) at 200 ppm: ≥ 80%
[7]
  mortality at 200 ppm: ≥ 80%
[4]
  percent control (mortality, anti-feedant effect or growth inhibition) at 200 ppm: ≥ 80%
[6]
  percent effect (mortality or growth inhibition) at 200 ppm: ≥ 80%

## CCS(=O)(=O)c1ccc(-n2cncn2)nc1-c1ncc2c(OCC(F)(F)C(F)(F)F)nccn12 [Compound P12, 3-[3-ethylsulfonyl-6-(1,2,4-triazol-1-yl)-2-pyridyl]-8-(2,2,3,3,3-penta-fluoropropoxy)imidazo [1,5-a]pyrazine]
[1]
  percent effect (mortality or growth inhibition) at 200 ppm: ≥ 80%
[2]
  percent effect (mortality or growth inhibition) at 200 ppm: ≥ 80%
[3]
  mortality at 200 ppm: ≥ 80%
[4]
  percent control (mortality, anti-feedant effect or growth inhibition) at 200 ppm: ≥ 80%
[6]
  percent effect (mortality or growth inhibition) at 200 ppm: ≥ 80%
[8]
  mortality at 200 ppm: ≥ 80%

## CCS(=O)(=O)c1ccc(Cl)nc1-c1ncc2c(OCC(F)(F)C(F)(F)F)nccn12
other
  melting point: 140 to 143 °C

## CCS(=O)(=O)c1cc(N=S(C)(C)=O)cnc1-c1ncc2c(OCC(F)(F)C(F)(F)F)nccn12 [Compound P18, [5-ethylsulfonyl-6-[8-(2,2,3,3,3-penta-fluoropropoxy)imidazo [1,5-a]pyrazin-3-yl]-3-pyridyl]imino-dimethyl-oxo-λ^6-sulfane]
[1]
  percent effect (mortality or growth inhibition) at 200 ppm: ≥ 80%
[2]
  percent effect (mortality or growth inhibition) at 200 ppm: ≥ 80%
[3]
  mortality at 200 ppm: ≥ 80%
[7]
  mortality at 200 ppm: ≥ 80%
[4]
  percent control (mortality, anti-feedant effect or growth inhibition) at 200 ppm: ≥ 80%
[6]
  percent effect (mortality or growth inhibition) at 200 ppm: ≥ 80%

## CCS(=N)(=O)c1cc(OC(C)(C)C#N)cnc1-c1ncc2c(OCC(F)(F)C(F)(F)F)nccn12 (stereo not drawn) [Compound P52, 2-[[5-(ethylsulfonimidoyl)-6-[8-(2,2,3,3,3-penta-fluoropropoxy)imidazo [1,5-a]pyrazin-3-yl]-3-pyridyl]oxy]-2-methyl-propanenitrile]
[2]
  percent effect (mortality or growth inhibition) at 200 ppm: ≥ 80%
[3]
  mortality at 200 ppm: ≥ 80%
[4]
  percent control (mortality, anti-feedant effect or growth inhibition) at 200 ppm: ≥ 80%
[6]
  percent effect (mortality or growth inhibition) at 200 ppm: ≥ 80%
[8]
  mortality at 200 ppm: ≥ 80%

## CCS(=O)(=O)c1ccc(N(C)C(C)=O)nc1-c1ncc2c(OCC(F)(F)C(F)(F)F)nccn12 [Compound P11, N-[5-ethylsulfonyl-6-[8-(2,2,3,3,3-penta-fluoropropoxy)imidazo [1,5-a]pyrazin-3-yl]-2-pyridyl]-N-methyl-acetamide]
[1]
  percent effect (mortality or growth inhibition) at 200 ppm: ≥ 80%
[2]
  percent effect (mortality or growth inhibition) at 200 ppm: ≥ 80%
[3]
  mortality at 200 ppm: ≥ 80%
[7]
  mortality at 200 ppm: ≥ 80%
[4]
  percent control (mortality, anti-feedant effect or growth inhibition) at 200 ppm: ≥ 80%
[6]
  percent effect (mortality or growth inhibition) at 200 ppm: ≥ 80%
